Here are results for 27 compounds from ChEMBL document CHEMBL5247627, “1-Methyl-3-((4-(quinolin-4-yloxy)phenyl)amino)-1H-pyrazole-4-carboxamide derivatives as new rearranged during Transfection (RET) kinase inhibitors capable of suppressing resistant mutants in solvent-front regions” (Eur J Med Chem, 2022).

Experiment [1] relates to BaF3. Nature of the experiment: Antiproliferative activity against mouse BaF3 cells expressing rearranged during transfection kinase G810C-CCDC6 incubated for 74 to 76 hrs by cell counting kit 8 method. (Tetrazolium assays rely on reduction of a dye to a coloured formazan, in cell work by metabolically active cells.)
In experiment [2] the test system is BaF3. Nature of the experiment: Antiproliferative activity against mouse BaF3 cells expressing rearranged during transfection kinase G810R-CCDC6 incubated for 74 to 76 hrs by cell counting kit 8 method.
The subject of experiment [3] is BaF3. Nature of the experiment: Antiproliferative activity against mouse BaF3 cells expressing wildtype rearranged during transfection kinase-CCDC6 incubated for 74 to 76 hrs by cell counting kit 8 method.
The subject of experiment [4] is BaF3. Nature of the experiment: Antiproliferative activity against mouse BaF3 cells incubated for 74 to 76 hrs by cell counting kit 8 method. The format is functional, cell-based.
Experiment [5] has as its system BaF3. Nature of the experiment: Antiproliferative activity against mouse BaF3 cells expressing rearranged during transfection kinase V804M-CCDC6 incubated for 74 to 76 hrs by cell counting kit 8 method.
The subject of experiment [6] is BaF3. Nature of the experiment: Antiproliferative activity against mouse BaF3 cells expressing rearranged during transfection kinase V804L-G810C incubated for 74 to 76 hrs by cell counting kit 8 method.
For experiment [7], the system named is BaF3. Nature of the experiment: Antiproliferative activity against mouse BaF3 cells expressing rearranged during transfection kinase V804L-G810S incubated for 74 to 76 hrs by cell counting kit 8 method.
Experiment [8] concerns BaF3. Put plainly: Antiproliferative activity against mouse BaF3 cells expressing rearranged during transfection kinase V804L-G810R incubated for 74 to 76 hrs by cell counting kit 8 method.
Experiment [9] has as its system BaF3. Nature of the experiment: Antiproliferative activity against mouse BaF3 cells expressing rearranged during transfection kinase V804M-KIF5B incubated for 74 to 76 hrs by cell counting kit 8 method.
In experiment [10] the test system is BaF3. Put plainly: Antiproliferative activity against mouse BaF3 cells expressing wildtype rearranged during transfection kinase-KIF5B incubated for 74 to 76 hrs by cell counting kit 8 method.
The subject of experiment [11] is BaF3. Nature of the experiment: Antiproliferative activity against mouse BaF3 cells expressing rearranged during transfection kinase V804L-KIF5B incubated for 74 to 76 hrs by cell counting kit 8 method.
The target in experiment [12] is Proto-oncogene tyrosine-protein kinase receptor Ret (Homo sapiens, UniProt P07949). Nature of the experiment: Inhibition of wild type rearranged during transfection kinase (unknown origin) preincubated for 1 hr followed by addition of development agent incubated for 1 hr measured by FRET-based Z'-Lyte assay.

pIC50: −log10 of the molar value.

Sequence of Proto-oncogene tyrosine-protein kinase receptor Ret (P07949 whole entry): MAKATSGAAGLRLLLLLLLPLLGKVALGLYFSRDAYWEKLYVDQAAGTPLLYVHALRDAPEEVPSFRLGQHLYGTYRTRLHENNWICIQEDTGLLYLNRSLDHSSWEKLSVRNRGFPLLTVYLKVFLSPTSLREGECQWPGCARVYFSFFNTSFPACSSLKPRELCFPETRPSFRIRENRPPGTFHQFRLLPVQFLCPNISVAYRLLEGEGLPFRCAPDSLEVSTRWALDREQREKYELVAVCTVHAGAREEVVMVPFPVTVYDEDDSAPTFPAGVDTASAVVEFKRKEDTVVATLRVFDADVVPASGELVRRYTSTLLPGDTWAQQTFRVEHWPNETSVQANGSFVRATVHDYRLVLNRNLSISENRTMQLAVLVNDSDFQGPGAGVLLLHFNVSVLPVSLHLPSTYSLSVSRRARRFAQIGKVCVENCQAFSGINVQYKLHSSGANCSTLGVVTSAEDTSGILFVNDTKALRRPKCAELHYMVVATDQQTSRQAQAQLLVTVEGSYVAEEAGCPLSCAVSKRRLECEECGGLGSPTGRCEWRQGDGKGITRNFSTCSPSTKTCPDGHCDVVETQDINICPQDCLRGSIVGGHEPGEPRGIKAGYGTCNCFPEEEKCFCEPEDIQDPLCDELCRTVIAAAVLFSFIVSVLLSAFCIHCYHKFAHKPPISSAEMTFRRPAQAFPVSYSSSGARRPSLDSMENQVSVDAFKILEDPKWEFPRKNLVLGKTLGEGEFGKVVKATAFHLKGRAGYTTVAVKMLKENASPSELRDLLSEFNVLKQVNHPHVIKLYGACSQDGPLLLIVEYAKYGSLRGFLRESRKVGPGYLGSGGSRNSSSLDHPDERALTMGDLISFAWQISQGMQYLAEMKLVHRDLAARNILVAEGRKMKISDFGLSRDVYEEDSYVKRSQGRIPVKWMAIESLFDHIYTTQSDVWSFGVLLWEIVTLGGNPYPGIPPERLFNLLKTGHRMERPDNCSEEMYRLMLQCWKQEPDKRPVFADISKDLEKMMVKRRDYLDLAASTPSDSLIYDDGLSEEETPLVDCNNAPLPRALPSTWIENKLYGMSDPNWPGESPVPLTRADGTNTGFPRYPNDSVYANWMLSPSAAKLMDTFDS

The term pIC50 denotes −log10 of the IC50, conventionally taken in molar units. Regarding `COc1cc2nccc(Oc3ccc(Nc4nn(C)cc4C(=O)NC4CCCCC4)cc3)c2cc1C(N)=O`, the pIC50 in the experiment with BaF3 [1] was 6.35; with BaF3 [2], 6.24; in the experiment with BaF3 [3], 7.62; with BaF3 [4], 5.32; with BaF3 [5] it was 6.63.
Regarding `CO[C@]1(C(=O)N[C@@H](C)c2ccc(-n3cc(F)cn3)nc2)CC[C@H](c2nc(C)cc(Nc3cc(C)[nH]n3)n2)CC1` [PRALSETINIB], the pIC50 in the experiment with BaF3 [6] was 6.67; in the experiment on BaF3 [1] it was under 6.58; in the experiment with BaF3 [2], 6.24; in the experiment on BaF3 [7], 7.66; with BaF3 [3], 8.36; in the experiment with BaF3 [8], 6.62. The pIC50 was 5.93 in the experiment on BaF3 [4]; 8.04 in the experiment on BaF3 [9]; 8.24 with BaF3 [10]; 8.46 with BaF3 [5]; 8.39 with BaF3 [11].
As to `COc1cc2nccc(Oc3ccc(Nc4nn(C)cc4C(=O)N4CCCC5CCCCC54)cc3)c2cc1C(N)=O` (stereo unspecified), the pIC50 with BaF3 [1] is 5.42; in experiment [12], under 5.00; in the experiment on BaF3 [2], 5.77; with BaF3 [3] it was 5.53; with BaF3 [4], 5.36; in the experiment with BaF3 [5], 6.04.
Consider `Cn1cc(C(=O)NC23CC4CC(CC(C4)C2)C3)c(Nc2ccc(Oc3ccnc4cc(OCCCN5CCOCC5)c(C(N)=O)cc34)c(F)c2)n1`, for which the pIC50 in the experiment on BaF3 [1] is 6.44; in the experiment on BaF3 [2] it was 6.48; in the experiment on BaF3 [3], 8.29; with BaF3 [4], 5.87; in the experiment with BaF3 [5], 8.15.
In the case of `COc1cc2nccc(Oc3ccc(Nc4nn(C)cc4C(=O)Nc4cccc(F)c4)cc3)c2cc1C(N)=O`, the pIC50 is 5.07 in the experiment with BaF3 [1]; under 5.00 in experiment [12]; 5.46 in the experiment with BaF3 [2]; 5.81 in the experiment with BaF3 [3]; 5.35 in the experiment with BaF3 [4]; 5.49 with BaF3 [5].
For `COc1cc2nccc(Oc3ccc(Nc4nn(C)cc4C(=O)NC45CC6CC(CC(C6)C4)C5)cc3)c2cc1C(N)=O`, the pIC50 is 7.00 in the experiment with BaF3 [1]; 6.55 in the experiment with BaF3 [2]; 8.06 in the experiment with BaF3 [3]; under 5.00 with BaF3 [4]; 7.22 in the experiment with BaF3 [5].
On to `COc1cc(Oc2ccnc3cc(OC)c(C(N)=O)cc23)ccc1Nc1nn(C)cc1C(=O)NC12CC3CC(CC(C3)C1)C2`, for which the pIC50 with BaF3 [1] is 6.46; with BaF3 [2] it was 6.23; in the experiment with BaF3 [3] it was 7.67; in the experiment with BaF3 [5], 6.85.
As for `Cn1cc(C(=O)NC23CC4CC(CC(C4)C2)C3)c(Nc2ccc(Oc3ccnc4cc(OCCN5CCOCC5)c(C(N)=O)cc34)c(F)c2)n1`, the pIC50 was 6.63 in the experiment with BaF3 [1]; 6.27 in the experiment with BaF3 [2]; 7.95 with BaF3 [3]; under 5.00 in the experiment on BaF3 [4]; 7.53 in the experiment on BaF3 [5].
On the same counts, the results for `COc1cc2nccc(Oc3ccc(Nc4nn(C)cc4C(=O)NC45CC6CC(CC(C6)C4)C5)cc3F)c2cc1C(N)=O` are 6.00, 5.79, 6.75, under 5.00 and 5.87.
On to `COc1cc2nccc(Oc3ccc(Nc4nn(C)cc4C(=O)Nc4ccc(F)cc4)cc3)c2cc1C(N)=O`, for which the pIC50 is 5.29 in the experiment on BaF3 [1]; under 5.00 in experiment [12]; 5.54 in the experiment with BaF3 [2]; 5.53 with BaF3 [3]; 5.51 with BaF3 [4]; 5.52 in the experiment on BaF3 [5].
With `COc1cc2nccc(Oc3ccc(Nc4nn(C)cc4C(=O)NCC(C)C)cc3)c2cc1C(N)=O`, the pIC50 with BaF3 [1] was 5.64; in the experiment with BaF3 [2] it was 5.69; in the experiment with BaF3 [3] it was 6.69; in the experiment with BaF3 [4], under 5.00; with BaF3 [5], 5.68.
As for `COc1cc2nccc(Oc3ccc(Nc4nn(C)cc4C(=O)NCC4CCCO4)cc3)c2cc1C(N)=O` (stereo unspecified), the pIC50 in the experiment with BaF3 [1] is 5.02; in the experiment with BaF3 [2] it was 5.01; with BaF3 [3], 5.94; with BaF3 [4] it was under 5.00; in the experiment on BaF3 [5] it was 5.16.
As to `COc1cc2nccc(Oc3ccc(Nc4nn(C)cc4C(=O)NC45CC6CC(CC(C6)C4)C5)c(Cl)c3)c2cc1C(N)=O`, the pIC50 was 7.53 in the experiment on BaF3 [1]; 6.86 with BaF3 [2]; 8.11 in the experiment on BaF3 [3]; under 5.00 in the experiment on BaF3 [4]; 7.27 in the experiment with BaF3 [5].
As to `COc1cc2nccc(Oc3ccc(Nc4nn(C)cc4C(=O)NC45CC6CC(CC(C6)C4)C5)c(C#N)c3)c2cc1C(N)=O`, the pIC50 with BaF3 [1] is 6.83; in the experiment with BaF3 [2], 6.64; in the experiment with BaF3 [3], 7.73; in the experiment with BaF3 [4], 5.01; in the experiment with BaF3 [5] it was 7.15.
Consider `COc1ccc(CN2C3CC2CN(c2ccc(-c4cc(OCC(C)(C)O)cn5ncc(C#N)c45)cn2)C3)cn1` [SELPERCATINIB], for which the pIC50 in the experiment on BaF3 [6] is 5.91; with BaF3 [1], 6.33; with BaF3 [2], 5.96; in the experiment on BaF3 [7] it was 6.60; in the experiment with BaF3 [3], 8.13; in the experiment with BaF3 [8], 5.36. In addition, the pIC50 was under 5.00 in the experiment with BaF3 [4]; 7.14 in the experiment with BaF3 [9]; 7.97 with BaF3 [10]; 7.76 with BaF3 [5]; 7.42 in the experiment on BaF3 [11].
Regarding `COc1cc2nccc(Oc3ccc(Nc4nn(C)cc4C(=O)N4CCCCC4)cc3)c2cc1C(N)=O`, the pIC50 was 5.24 in the experiment with BaF3 [1]; under 5.00 in [12]; 5.45 in the experiment with BaF3 [2]; 5.51 in the experiment with BaF3 [3]; 5.25 with BaF3 [4]; 5.42 in the experiment on BaF3 [5].
`COc1cc2nccc(Oc3ccc(Nc4nn(C)cc4C(=O)NC45CC6CC(CC(C6)C4)C5)cc3F)c2cc1C#N`: the pIC50 was 6.18 in the experiment on BaF3 [1]; 5.89 in the experiment on BaF3 [2]; 6.85 in the experiment with BaF3 [3]; under 5.00 with BaF3 [4]; 5.79 in the experiment on BaF3 [5].
On the same counts, the results for `COc1cc2nccc(Oc3ccc(Nc4nn(C)cc4C(=O)NOCc4ccccc4)cc3)c2cc1C(N)=O` are under 5.00, 5.31, 6.39, under 5.00 and 6.14.
On the same counts, the results for `COc1cc2nccc(Oc3ccc(Nc4nn(C)cc4C(=O)NCC4CCCCC4)cc3)c2cc1C(N)=O` are 5.90, 5.44, 6.55, under 5.00 and 6.05.
Consider `COc1cc2nccc(Oc3ccc(Nc4nn(C)cc4C(=O)NC4CCCC4)cc3)c2cc1C(N)=O`, for which the pIC50 was 5.44 with BaF3 [1]; 5.14 in the experiment with BaF3 [2]; 6.82 with BaF3 [3]; under 5.00 in the experiment on BaF3 [4]; 5.99 in the experiment with BaF3 [5].
As to `COc1cc2nccc(Oc3ccc(Nc4nn(C)cc4C(=O)Nc4ccccc4)cc3)c2cc1C(N)=O`, the pIC50 with BaF3 [1] was under 5.00; in the experiment with BaF3 [2], under 5.00; with BaF3 [3], 5.65; with BaF3 [4] it was under 5.00; with BaF3 [5], 5.76.
As to `COc1cc2nccc(Oc3ccc(Nc4nn(C)cc4C(=O)NCc4ccccc4)cc3)c2cc1C(N)=O`, the pIC50 in the experiment on BaF3 [1] is 5.07; in the experiment with BaF3 [2], 5.04; in the experiment with BaF3 [3], 5.66; in the experiment on BaF3 [4] it was under 5.00; with BaF3 [5], 5.95.
For `CNC(=O)c1cc2c(Oc3ccc(Nc4nn(C)cc4C(=O)NC45CC6CC(CC(C6)C4)C5)cc3F)ccnc2cc1OC`, the pIC50 was 6.91 in the experiment with BaF3 [1]; 6.72 in the experiment on BaF3 [2]; 7.86 in the experiment on BaF3 [3]; under 5.00 in the experiment on BaF3 [4]; 7.21 with BaF3 [5].
Regarding `COc1cc2nccc(Oc3ccc(Nc4nn(C)cc4C(=O)NC45CC6CC(CC(C6)C4)C5)c(C)c3)c2cc1C(N)=O`, the pIC50 with BaF3 [1] is 7.18; with BaF3 [2], 6.33; with BaF3 [3] it was 7.93; in the experiment with BaF3 [4], under 5.00; with BaF3 [5] it was 7.21.
Turning to `COc1cc2nccc(Oc3ccc(Nc4nn(C)cc4C(=O)NC45CCC(CC4)CC5)cc3)c2cc1C(N)=O`, the pIC50 with BaF3 [1] was 6.48; in the experiment on BaF3 [2] it was 6.58; in the experiment on BaF3 [3] it was 7.86; in the experiment with BaF3 [4], under 5.00; in the experiment with BaF3 [5], 6.79.
For the compound `COc1cc2nccc(Oc3ccc(Nc4nn(C)cc4C(=O)Nc4ccccc4F)cc3)c2cc1C(N)=O`, the pIC50 is under 5.00 with BaF3 [1]; under 5.00 in experiment [12]; 5.92 with BaF3 [2]; under 5.00 in the experiment on BaF3 [3]; 5.77 with BaF3 [4]; 5.73 with BaF3 [5].
Take `COc1cc2nccc(Oc3ccc(Nc4nn(C)cc4C(=O)NC4CCCCCCC4)cc3)c2cc1C(N)=O`: the pIC50 in the experiment on BaF3 [1] is 7.02; with BaF3 [2] it was 6.28; in the experiment on BaF3 [3] it was 7.90; with BaF3 [4], 5.49; with BaF3 [5], 6.77.
